In general, IC50 refers to the concentration that gives 50% inhibition.

Where a name gives a salt, the structure may show the parent alone. Read-outs that look alike come from different tables or passages of the source.

The test system of the experiment is rat basophilic leukemia cells (RBL-2H3). Kind of experiment: Degranulation inhibitory activity: hexosaminidase release-inhibitory activity test. The class given is cell-based. The conditions noted are these: for IC50 value (inhibition of release of hexosaminidase) / IC50: IgE-sensitized RBL-2H3 cells, DNP-BSA antigen-induced degranulation; for Activity compared with the positive control ketotifen fumarate: statement in words, hexosaminidase release, RBL-2H3. The procedure:
With regard to the measurement of degranulation inhibitory activity, a test for hexosaminidase release-inhibitory activity was carried out by referring to Non-Patent Document 1 and Non-Patent Document 2 (Kataoka M., Takagaki Y., Shoyakugaku Zasshi, 46(1), 25-29, 1992). Firstly, rat basophilic leukemia cells (RBL-2H3) were made into 5×10^5 cells/mL and seeded on a 96-well plate and anti-DNP-BSA mouse IgE antibody was added thereto so as to make its final concentration 0.29 μg/mL and incubated with 5% CO2 at 37° C. overnight in an incubator to sensitize the cells. Then the cells were washed with a phosphate-buffered physiological saline solution twice and 130 μL of a releasing mixture (comprising 116.9 mM of NaCl, 5.4 mM of KCl, 0.8 mM of MgSO4, 2.0 mM of CaCl2, 5.6 mM of glucose, 0.1% of bovine serum albumin and 25 mM of HEPES) was added thereto.
Then, Compounds (A) and (C) obtained in the invention were first dissolved in 25% ethanol, and then Compound (A) was diluted with 1% ethanol to achieve the final concentration in 7 serial dilutions in steps of from 1 μg/mL to 5 ng/mL; and Compound (C) was diluted with 1% ethanol to achieve the final concentration by 7 serial dilutions in steps of from 10 μg/mL to 50 ng/mL. Compound (B) was first dissolved in water, and then diluted with 1% ethanol to achieve the final concentration by 7 serial dilutions in steps of from 50 μg/mL to 50 ng/mL. Compound (D) was diluted with 4% ethanol-20 mM phosphate buffer to achieve the final concentration by 4 serial dilutions in steps of 2.6 μg/mL to 165 ng/mL. 10 μL portion samples of all concentrations of Compounds (A), (B), (C) and (D) were added to the cells, respectively, and allowed to stand at 37° C. under 5% CO2 in an incubator for 10 minutes. Then 10 μL of an antigen DNP-BSA (2 μg/mL) was added, the mixture was allowed to stand in an incubator for 1 hour to induce degranulation, and centrifuged to collect the supernatant. 15 μL of a 5 mM hexosaminidase substrate solution (p-nitrophenyl-β-D-glucosaminide) was added to 45 μL of the supernatant liquid, the mixture was made to react at 37° C. for 3 hours and 180 μL of a solution for stopping the reaction (0.1M NaHCO3/Na2CO3; pH 10.0) was added thereto. After completion of the reaction, absorbance at 415 nm was measured and the hexosaminidase release-inhibitory activity was calculated by the following formula. Meanwhile, a positive control (200 μM of ketotifen fumarate) and a negative control corresponding to the final solvent concentration for the test substance were prepared.
Hexosaminidase release-inhibitory Activity(%)=[1−(S−B/C−b)]×100
S: absorbance of the test substance upon addition of cells
B: absorbance upon addition of the test substance in the absence of the cells
C: absorbance of the negative control
b: absorbance in the absence of cells

Setting [1] is: molar concentration, read-out: IC50 value (inhibition of release of hexosaminidase), molar value in brackets.
The mark [2] stands for this setting: Rattus norvegicus, mass concentration, read-out: IC50 value (inhibition of release of hexosaminidase).
Where [3] appears, read: Rattus norvegicus, molar concentration, read-out: IC50 value (inhibition of release of hexosaminidase), molar value in brackets.

For the compound `O=c1oc2c3c(cc4c(=O)oc5c(O)c(OC6O[C@H](CO)[C@@H](O)[C@H](O)[C@H]6O)cc1c5c24)OCO3` (stereo partly shown) [Compound (A), 3,4-dioxoloellagic acid 4′-glucoside], the “IC50 value (inhibition of release of hexosaminidase)” value (mass concentration) was determined as 0.00663 µg/mL. Further, the IC50 under setting [1] worked out at 0.014 µM.

For `COc1c(O)cc2c(=O)oc3c(O)c(OC4O[C@H](CO)[C@@H](O)[C@H](O)[C@H]4O)cc4c(=O)oc1c2c34` (stereo partly shown) [Compound (B), 3-O-methylellagic acid 4′-glucoside], the “Activity compared with the positive control ketotifen fumarate” value is given as “higher activity”. For the same compound, the “IC50 value (inhibition of release of hexosaminidase)” value (mass concentration) was 14.83 µg/mL. Also, the IC50 under setting [1] amounted to 31 µM.

Take `COc1cc2c(=O)oc3c(OC)c(O)cc4c(=O)oc(c1OC)c2c34` [Compound (C), 3,3′,4-tri-O-methylellagic acid]: the “Activity compared with the positive control ketotifen fumarate” value is on record as “higher activity”. Further, the IC50 under setting [2] is 4.47 µg/mL. Further, the IC50 under setting [3] turned out to be 13 µM.

Take `O=c1oc2c3c(cc4c(=O)oc5c(O)c(O)cc1c5c24)OCO3` [Compound (D), 3,4-dioxoloellagic acid]: the “Activity compared with the positive control ketotifen fumarate” value is listed as “higher activity”. Also, the IC50 under setting [2] is 1.07 µg/mL. The IC50 under setting [3] amounted to 3 µM.

On to `CN1CCC(=C2c3ccccc3CC(=O)c3sccc32)CC1` [Ketotifen fumarate, ketotifen fumarate, reference compound], for which the IC50 was found to be 71.8 µg/mL under setting [2] and 169 µM under setting [3].

Values taken from patent US20090143318A1, “DEGRANULATION INHIBITOR” (Tropical Technology Center Ltd., priority 2006, published 2009).
